According to patent US20220266206A1, “FORMULATION AND PROCESS FOR MANUFACTURING A HEAT STABLE OIL-IN-WATER EMULSION FOR CANNABIS BEVERAGES IN PLASTIC BOTTLES” (Gaia Botanicals LLC DBA Bluebird Botanicals, priority 2021, published 2022):

Test: Solubility of CBD in MCT oil (fractionated coconut oil)
Format: physicochemical
Conditions: carrier oil: fractionated coconut oil (MCT oil)
Description: In first mixing step 100, cannabinoid extract may be advantageously dissolved into a carrier oil to create oil phase 150. An aspect of the current invention is the use of a carrier oil, which overcomes the issues of aqueous solubility for the cannabinoid extract, particularly CBD. In its pure form, CBD is a non-polar crystalline solid which in the absence of an oil or alcohol will not readily dissolve to form a stable emulsion with the gum blend. By dissolving the CBD in a carrier oil in first mixing step 100, the CBD will be readily dissolved into the oil which increases its suitability for emulsion formation. In an embodiment of the invention, CBD is added to fractionated coconut oil (MCT oil) in first mixing step 100 using an immersion blender to thoroughly mix, then the mixture is transferred to a magnetic stir plate to allow for slow gentle mixing of the oil until the CBD is completely dissolved. First mixing step 100 can comprise immersion blending at a high shear rate followed by a slower mixing utilizing a stir bar. Heat may be used to speed the process but may result on oxidation of the CBD as well as result in off-flavors. MCT oil offers several advantages over other possible carrier oils as it is both colorless and nearly flavorless, and it readily dissolves CBD at concentrations as high as 30%. […]

## C=C(C)[C@@H]1CCC(C)=C[C@H]1c1c(O)cc(CCCCC)cc1O [CBD, cannabidiol]
  concentration of CBD readily dissolved in MCT oil: ≤ 30%
